# From patent US6770597B2, “Benzohydrazide derivatives as herbicides and desiccant compositions containing them” (Ishihara Sangyo Kaisha, Ltd., priority 2002, dated 2004)
# What was measured:
# Format in all cases: in vivo
# [1] = test system: large crabgrass (Digitaria sanguinalis, DIGSA); experiment: Greenhouse herbicide screen, pre-emerge application, phytotoxicity rating; details: PRE emergent, 14 days after application, rating scale 0-100
# Procedure, shortened: (§1)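 Crop and weed responses were judged visually on a 0–100 scale two weeks post-treatment. Treatments: acetone solutions, 15–1000 g ai/ha, sprayed at 187 l/ha onto pre-emerge soil or 2–3-leaf plants.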
# [2] = test system: ivyleaf morningglory (Ipomoea hederacea, IPOHE); experiment: as above; details: PRE emergent, 14 days after application, rating scale 0-100
# Procedure, shortened: as §1
# [3] = test system: green foxtail (Setaria viridis, SETVI); experiment: as above; details: PRE emergent, 14 days after application, rating scale 0-100
# Procedure, shortened: as §1
# [4] = test system: johnsongrass (Sorghum halepense, SORHA); experiment: as above; details: PRE emergent, 14 days after application, rating scale 0-100
# Procedure, shortened: as §1
# [5] = test system: lambsquarters (Chenopodium album, CHEAL); experiment: as above; details: PRE emergent, 14 days after application, rating scale 0-100
# Procedure, shortened: as §1
# [6] = test system: cocklebur (Xanthium strumarium, XANST); experiment: as above; details: PRE emergent, 14 days after application, rating scale 0-100
# Procedure, shortened: as §1
# [7] = test system: velvetleaf (Abutilon theophrasti, ABUTH); experiment: as above; details: PRE emergent, 14 days after application, rating scale 0-100
# Procedure, shortened: as §1
# [8] = test system: barnyardgrass (Echinochloa crus-galli, ECHCG); experiment: as above; details: PRE emergent, 14 days after application, rating scale 0-100
# Procedure, shortened: as §1
# [9] = test system: common ragweed (Ambrosia artemisiifolia L., AMBEL); experiment: as above; details: PRE emergent, 14 days after application, rating scale 0-100
# Procedure, shortened: as §1
# [10] = test system: sicklepod (Cassia obtusifolia, CASOB); experiment: as above; details: PRE emergent, 14 days after application, rating scale 0-100
# Procedure, shortened: as §1
# [11] = test system: redroot pigweed (Amaranthus retrofiexus, AMARE); experiment: as above; details: PRE emergent, 14 days after application, rating scale 0-100
# Procedure, shortened: as §1
# [12] = test system: field corn (Zea mays L., var. Dekalb 535, CORN); experiment: Greenhouse herbicide screen, pre-emerge application, crop damage rating; details: PRE emergent, 14 days after application, rating scale 0-100
# Procedure, shortened: as §1
# [13] = test system: upland rice (Oryza sp., var.Cocodrie, RICE); experiment: as above; details: PRE emergent, 14 days after application, rating scale 0-100
# Procedure, shortened: as §1
# [14] = test system: field corn (Zea mays L., var. Dekalb 535, CORN); experiment: Greenhouse herbicide screen, post-emerge application, crop damage rating; details: POST emergent, 14 days after application, scale 0-100
# Procedure, shortened: as §1
# [15] = test system: upland rice (Oryza sp., var.Cocodrie, RICE); experiment: as above; details: POST emergent, 14 days after application, scale 0-100
# Procedure, shortened: as §1
# [16] = test system: large crabgrass (Digitaria sanguinalis, DIGSA); experiment: Greenhouse herbicide screen, post-emerge application, phytotoxicity rating; details: POST emergent, 14 days after application, scale 0-100
# Procedure, shortened: as §1
# [17] = test system: ivyleaf morningglory (Ipomoea hederacea, IPOHE); experiment: as above; details: POST emergent, 14 days after application, scale 0-100
# Procedure, shortened: as §1
# [18] = test system: green foxtail (Setaria viridis, SETVI); experiment: as above; details: POST emergent, 14 days after application, scale 0-100
# Procedure, shortened: as §1
# [19] = test system: johnsongrass (Sorghum halepense, SORHA); experiment: as above; details: POST emergent, 14 days after application, scale 0-100
# Procedure, shortened: as §1
# [20] = test system: lambsquarters (Chenopodium album, CHEAL); experiment: as above; details: POST emergent, 14 days after application, scale 0-100
# Procedure, shortened: as §1
# [21] = test system: cocklebur (Xanthium strumarium, XANST); experiment: as above; details: POST emergent, 14 days after application, scale 0-100
# Procedure, shortened: as §1
# [22] = test system: velvetleaf (Abutilon theophrasti, ABUTH); experiment: as above; details: POST emergent, 14 days after application, scale 0-100
# Procedure, shortened: as §1
# [23] = test system: barnyardgrass (Echinochloa crus-galli, ECHCG); experiment: as above; details: POST emergent, 14 days after application, scale 0-100
# Procedure, shortened: as §1
# [24] = test system: common ragweed (Ambrosia artemisiifolia L., AMBEL); experiment: as above; details: POST emergent, 14 days after application, scale 0-100
# Procedure, shortened: as §1
# [25] = test system: sicklepod (Cassia obtusifolia, CASOB); experiment: as above; details: POST emergent, 14 days after application, scale 0-100
# Procedure, shortened: as §1
# [26] = test system: redroot pigweed (Amaranthus retrofiexus, AMARE); experiment: as above; details: POST emergent, 14 days after application
# Procedure, shortened: as §1
# [27] = 63 g ai/ha, scale 0-100 (0 no damage, 100 complete death)
smiles,measurement,setting,value
CC(=O)OC(=NN1C(C)CCCC1C)c1cc(-n2c(=O)cc(C(F)(F)F)n(C)c2=O)c(F)cc1Cl (centres unmarked) [Compound 4-9],phytotoxicity rating DIGSA,[1]; 63 g ai/ha,99
same,phytotoxicity rating DIGSA,[1]; 250 g ai/ha,100
same,phytotoxicity rating IPOHE,[2]; 63 g ai/ha,100
same,phytotoxicity rating IPOHE,[2]; 250 g ai/ha,100
same,phytotoxicity rating SETVI,[3]; 63 g ai/ha,100
same,phytotoxicity rating SETVI,[3]; 250 g ai/ha,100
same,phytotoxicity rating SORHA,[4]; 63 g ai/ha,65
same,phytotoxicity rating SORHA,[4]; 250 g ai/ha,100
same,phytotoxicity rating CHEAL,[5]; 63 g ai/ha,100
same,phytotoxicity rating CHEAL,[5]; 250 g ai/ha,100
same,phytotoxicity rating XANST,[6]; 63 g ai/ha,35
same,phytotoxicity rating XANST,[6]; 250 g ai/ha,100
same,phytotoxicity rating ABUTH,[7]; 63 g ai/ha,100
same,phytotoxicity rating ABUTH,[7]; 250 g ai/ha,100
same,phytotoxicity rating ECHCG,[8]; 63 g ai/ha,55
same,phytotoxicity rating ECHCG,[8]; 250 g ai/ha,99
same,phytotoxicity rating AMBEL,[9]; 63 g ai/ha,90
same,phytotoxicity rating AMBEL,[9]; 250 g ai/ha,100
same,phytotoxicity rating CASOB,[10]; 63 g ai/ha,80
same,phytotoxicity rating CASOB,[10]; 250 g ai/ha,100
same,phytotoxicity rating AMARE,[11]; 63 g ai/ha,100
same,phytotoxicity rating AMARE,[11]; 250 g ai/ha,100
same,crop damage rating CORN,[12]; 63 g ai/ha,30
same,crop damage rating CORN,[12]; 250 g ai/ha,95
same,crop damage rating RICE,[13]; 63 g ai/ha,10
same,crop damage rating RICE,[13]; 250 g ai/ha,15
same,crop damage rating CORN,[14]; 63 g ai/ha,0
same,crop damage rating CORN,[14]; 250 g ai/ha,50
same,crop damage rating RICE,[15]; 63 g ai/ha,0
same,crop damage rating RICE,[15]; 250 g ai/ha,0
same,phytotoxicity rating DIGSA,[16]; 63 g ai/ha,50
same,phytotoxicity rating DIGSA,[16]; 250 g ai/ha,99
same,phytotoxicity rating IPOHE,[17]; 63 g ai/ha,95
same,phytotoxicity rating IPOHE,[17]; 250 g ai/ha,100
same,phytotoxicity rating SETVI,[18]; 63 g ai/ha,65
same,phytotoxicity rating SETVI,[18]; 250 g ai/ha,100
same,phytotoxicity rating SORHA,[19]; 63 g ai/ha,0
same,phytotoxicity rating SORHA,[19]; 250 g ai/ha,80
same,phytotoxicity rating CHEAL,[20]; 63 g ai/ha,100
same,phytotoxicity rating CHEAL,[20]; 250 g ai/ha,100
same,phytotoxicity rating XANST,[21]; 63 g ai/ha,30
same,phytotoxicity rating XANST,[21]; 250 g ai/ha,60
same,phytotoxicity rating ABUTH,[22]; 63 g ai/ha,100
same,phytotoxicity rating ABUTH,[22]; 250 g ai/ha,100
same,phytotoxicity rating ECHCO,[23]; 63 g ai/ha,0
same,phytotoxicity rating ECHCO,[23]; 250 g ai/ha,15
same,phytotoxicity rating AMBEL,[24]; 63 g ai/ha,60
same,phytotoxicity rating AMBEL,[24]; 250 g ai/ha,99
same,phytotoxicity rating CASOB,[25]; 63 g ai/ha,60
same,phytotoxicity rating CASOB,[25]; 250 g ai/ha,90
same,phytotoxicity rating AMARE,[26]; [27],100
same,phytotoxicity rating AMARE,"[26]; 250 g ai/ha, scale 0-100",100
CC(=NN=C(OS(C)(=O)=O)c1cc(-n2c(=O)cc(C(F)(F)F)n(C)c2=O)c(F)cc1Cl)C(C)(C)C [Compound 5-3],phytotoxicity rating DIGSA,[1]; 63 g ai/ha,60
same,phytotoxicity rating IPOHE,[2]; 63 g ai/ha,80
same,phytotoxicity rating SETVI,[3]; 63 g ai/ha,55
same,phytotoxicity rating SORHA,[4]; 63 g ai/ha,90
same,phytotoxicity rating CHEAL,[5]; 63 g ai/ha,100
same,phytotoxicity rating XANST,[6]; 63 g ai/ha,30
same,phytotoxicity rating ABUTH,[7]; 63 g ai/ha,100
same,phytotoxicity rating ECHCG,[8]; 63 g ai/ha,30
same,phytotoxicity rating AMBEL,[9]; 63 g ai/ha,60
same,phytotoxicity rating CASOB,[10]; 63 g ai/ha,70
same,phytotoxicity rating AMARE,[11]; 63 g ai/ha,100
same,crop damage rating CORN,[12]; 63 g ai/ha,50
same,crop damage rating RICE,[13]; 63 g ai/ha,30
same,crop damage rating CORN,[14]; 63 g ai/ha,60
same,crop damage rating RICE,[15]; 63 g ai/ha,10
same,phytotoxicity rating DIGSA,[16]; 63 g ai/ha,60
same,phytotoxicity rating IPOHE,[17]; 63 g ai/ha,100
same,phytotoxicity rating SETVI,[18]; 63 g ai/ha,60
same,phytotoxicity rating SORHA,[19]; 63 g ai/ha,30
same,phytotoxicity rating CHEAL,[20]; 63 g ai/ha,80
same,phytotoxicity rating XANST,[21]; 63 g ai/ha,70
same,phytotoxicity rating ABUTH,[22]; 63 g ai/ha,95
same,phytotoxicity rating ECHCO,[23]; 63 g ai/ha,100
same,phytotoxicity rating AMBEL,[24]; 63 g ai/ha,90
same,phytotoxicity rating CASOB,[25]; 63 g ai/ha,50
same,phytotoxicity rating AMARE,[26]; [27],99
CC(=NN=C(OC(=O)C(Cl)Cl)c1cc(-n2c(=O)cc(C(F)(F)F)n(C)c2=O)c(F)cc1Cl)C(C)(C)C [Compound 5-4],phytotoxicity rating DIGSA,[1]; 63 g ai/ha,55
same,phytotoxicity rating IPOHE,[2]; 63 g ai/ha,100
same,phytotoxicity rating SETVI,[3]; 63 g ai/ha,50
same,phytotoxicity rating SORHA,[4]; 63 g ai/ha,85
same,phytotoxicity rating CHEAL,[5]; 63 g ai/ha,100
same,phytotoxicity rating XANST,[6]; 63 g ai/ha,40
same,phytotoxicity rating ABUTH,[7]; 63 g ai/ha,100
same,phytotoxicity rating ECHCG,[8]; 63 g ai/ha,40
same,phytotoxicity rating AMBEL,[9]; 63 g ai/ha,70
same,phytotoxicity rating CASOB,[10]; 63 g ai/ha,30
same,phytotoxicity rating AMARE,[11]; 63 g ai/ha,100
same,crop damage rating CORN,[12]; 63 g ai/ha,10
same,crop damage rating RICE,[13]; 63 g ai/ha,55
same,crop damage rating CORN,[14]; 63 g ai/ha,60
same,crop damage rating RICE,[15]; 63 g ai/ha,10
same,phytotoxicity rating DIGSA,[16]; 63 g ai/ha,75
same,phytotoxicity rating IPOHE,[17]; 63 g ai/ha,100
same,phytotoxicity rating SETVI,[18]; 63 g ai/ha,55
same,phytotoxicity rating SORHA,[19]; 63 g ai/ha,30
same,phytotoxicity rating CHEAL,[20]; 63 g ai/ha,70
same,phytotoxicity rating XANST,[21]; 63 g ai/ha,65
same,phytotoxicity rating ABUTH,[22]; 63 g ai/ha,99
same,phytotoxicity rating ECHCO,[23]; 63 g ai/ha,90
same,phytotoxicity rating AMBEL,[24]; 63 g ai/ha,95
same,phytotoxicity rating CASOB,[25]; 63 g ai/ha,50
same,phytotoxicity rating AMARE,[26]; [27],95
